Measurements taken from ChEMBL document CHEMBL4296183, “CO-ADD screening of NIH NCI Natural Product Set III” (2020).
≈ marks a conversion by molar mass, not a printed value. Where a name gives a salt, the structure may show the parent alone.

What was measured:
HEK293 = experiment: cells; assay type: functional; conditions: Homo sapiens, ATCC CRL1573, HEK293; ASSAY_TEST Inhibition of Cell Viability; detection method Resazurin; Fluorescence (ex560/em590); MEDIA DMEM with 10% FBS; plate type 384well; TC; CORNING #3712; time 18 hr
Candida albicans = experiment: microbe, parasite or virus in culture; conditions: ATCC 90028, ASSAY_TEST Inhibition of Fungal Growth, detection method Absorption (OD530), plate type 384well, NBS, CORNING #3640
Description: Antifungal activity against Candida albicans ATCC 90028 (CO-ADD:FG_001); MIC in YNB media using NBS plates, by OD630

Klebsiella pneumoniae = experiment: microbe, parasite or virus in culture; conditions: ATCC 700603, 18 h, ASSAY_TEST Inhibition of Bacterial Growth, detection method Absorption (OD600), MEDIA CAMHB, plate type 384well, NBS, CORNING #3640
Description: Antibacterial activity against Klebsiella pneumoniae MDR ATCC 70063 (CO-ADD:GN_003); MIC in CAMBH media using NBS plates, by OD(600)

Pseudomonas aeruginosa = experiment: microbe, parasite or virus in culture; conditions: ATCC 27853, 18 h, ASSAY_TEST Inhibition of Bacterial Growth, detection method Absorption (OD600), MEDIA CAMHB, plate type 384well, NBS, CORNING #3640
Description: Antibacterial activity against Pseudomonas aeruginosa ATCC 27853 (CO-ADD:GN_042); MIC in CAMBH media using NBS plates, by OD(600)

Acinetobacter baumannii = experiment: microbe, parasite or virus in culture; conditions: ATCC 19606, 18 h, ASSAY_TEST Inhibition of Bacterial Growth, detection method Absorption (OD600), MEDIA CAMHB, plate type 384well, NBS, CORNING #3640
Description: Antibacterial activity against Acinetobacter baumannii ATCC 19606 (CO-ADD:GN_034); MIC in CAMBH media using NBS plates, by OD600

Staphylococcus aureus = experiment: microbe, parasite or virus in culture; conditions: ATCC 43300, 18 h, ASSAY_TEST Inhibition of Bacterial Growth, detection method Absorption (OD600), MEDIA CAMHB, plate type 384well, NBS, CORNING #3640
Description: Antibacterial activity against Staphylococcus aureus MRSA ATCC 43300 (CO-ADD:GP_020); MIC in CAMBH media, using NBS plates, by OD(600)

Escherichia coli = experiment: microbe, parasite or virus in culture; conditions: ATCC 25922, 18 h, ASSAY_TEST Inhibition of Bacterial Growth, detection method Absorption (OD600), MEDIA CAMHB, plate type 384well, NBS, CORNING #3640
Description: Antibacterial activity against Escherichia coli ATCC 25922 (CO-ADD:GN_001); MIC in CAMBH media using NBS plates, by OD(600)

Description for Cryptococcus neoformans: Antifungal activity against Cryptococcus neoformans H99 ATCC 208821 (CO-ADD:FG_002); MIC in YNB media using NBS plates, by Resazurin OD(600-570)

N#Cc1cn(C2OC(CO)C(O)C2O)c2ncnc(N)c12 (centres undefined)
CC50 (HEK293): > 10 µM
MIC (Candida albicans): 0.312 µM (≈ 0.091 µg/mL)
MIC (Klebsiella pneumoniae): > 10 µM
MIC (Pseudomonas aeruginosa): > 10 µM
MIC (Acinetobacter baumannii): > 10 µM
MIC (Staphylococcus aureus): > 10 µM
MIC (Cryptococcus neoformans): > 10 µM
MIC (Escherichia coli): > 10 µM

O=c1ccc2nc3ccc(O)cc3oc-2c1
CC50 (HEK293): > 10 µM
MIC (Candida albicans): > 10 µM
MIC (Klebsiella pneumoniae): > 10 µM
MIC (Pseudomonas aeruginosa): > 10 µM
MIC (Acinetobacter baumannii): > 10 µM
MIC (Staphylococcus aureus): > 10 µM
MIC (Cryptococcus neoformans): > 10 µM
MIC (Escherichia coli): > 10 µM

COc1cccc2c1C(=O)c1c(O)c3c(c(O)c1C2=O)C[C@@](O)(C(C)=O)C[C@@H]3OC1CC(N)C(O)C(C)O1 (some centres undefined)
CC50 (HEK293): 0.613 µM
MIC (Candida albicans): > 10 µM
MIC (Klebsiella pneumoniae): > 10 µM
MIC (Pseudomonas aeruginosa): > 10 µM
MIC (Acinetobacter baumannii): > 10 µM
MIC (Staphylococcus aureus): 5 µM (≈ 2.64 µg/mL)
MIC (Cryptococcus neoformans): > 10 µM
MIC (Escherichia coli): > 10 µM

CC1Oc2cc3c(-c4c(O)cc(O)c5c(O)c6c(cc45)OC(C)C(C)C6=O)c(O)cc(O)c3c(O)c2C(=O)C1C (centres undefined)
CC50 (HEK293): 5.78 µM
MIC (Candida albicans): > 10 µM
MIC (Klebsiella pneumoniae): > 10 µM
MIC (Pseudomonas aeruginosa): > 10 µM
MIC (Acinetobacter baumannii): > 10 µM
MIC (Staphylococcus aureus): 5 µM (≈ 2.73 µg/mL)
MIC (Cryptococcus neoformans): > 10 µM
MIC (Escherichia coli): > 10 µM

COC1=C2C[C@@H](C)C[C@@H](OC)[C@@H](O)[C@H](C)/C=C(\C)[C@@H](OC(N)=O)[C@H](OC)/C=C\C=C(/C)C(=O)NC(=CC1=O)C2=O
CC50 (HEK293): > 10 µM
MIC (Candida albicans): > 10 µM
MIC (Klebsiella pneumoniae): > 10 µM
MIC (Pseudomonas aeruginosa): > 10 µM
MIC (Acinetobacter baumannii): > 10 µM
MIC (Staphylococcus aureus): > 10 µM
MIC (Cryptococcus neoformans): > 10 µM
MIC (Escherichia coli): > 10 µM

CC[C@H](C)c1occ2c(O)c(C(=O)O)c(=O)cc-2c1C
CC50 (HEK293): > 10 µM
MIC (Candida albicans): > 10 µM
MIC (Klebsiella pneumoniae): > 10 µM
MIC (Pseudomonas aeruginosa): > 10 µM
MIC (Acinetobacter baumannii): > 10 µM
MIC (Staphylococcus aureus): > 10 µM
MIC (Cryptococcus neoformans): > 10 µM
MIC (Escherichia coli): > 10 µM

C=C(NC(=O)C(=C)NC(=O)c1csc(C2=NC3c4csc(n4)C4NC(=O)c5csc(n5)C(C(C)(O)C(C)O)NC(=O)C5CSC(=N5)/C(=C/C)NC(=O)C(C(C)O)NC(=O)c5csc(n5)C3(CC2)NC(=O)C(C)NC(=O)C(=C)NC(=O)C(=C)NC(=O)C(C(C)C)NC2C=Cc3c(C(C)O)cc(nc3C2O)C(=O)OC4C)n1)C(N)=O (centres undefined)
CC50 (HEK293): > 10 µM
MIC (Candida albicans): > 10 µM
MIC (Klebsiella pneumoniae): > 10 µM
MIC (Pseudomonas aeruginosa): > 10 µM
MIC (Acinetobacter baumannii): > 10 µM
MIC (Staphylococcus aureus): ≤ 0.0781 µM
MIC (Cryptococcus neoformans): > 10 µM
MIC (Escherichia coli): > 10 µM

COc1cc(C)cc2c(-c3c(O)cc(O)c4c3C[C@H](C)N[C@H]4C)cc(-c3cc(-c4c(O)cc(O)c5c4C[C@H](C)N[C@H]5C)c4cc(C)cc(OC)c4c3O)c(O)c12
CC50 (HEK293): > 10 µM
MIC (Candida albicans): > 10 µM
MIC (Klebsiella pneumoniae): > 10 µM
MIC (Pseudomonas aeruginosa): > 10 µM
MIC (Acinetobacter baumannii): > 10 µM
MIC (Staphylococcus aureus): > 10 µM
MIC (Cryptococcus neoformans): > 10 µM
MIC (Escherichia coli): > 10 µM

CC1COC2C3=C(C(=O)C=CC3=O)C3OC(=O)C4CC5CCC1C5C2C43 (centres undefined)
CC50 (HEK293): 1.18 µM

CC1/C=C/C=C/CC/C=C/C=C/C=C/C=C/C(OC2OC(C)C(O)C(N)C2O)CC2OC(CC(O)C(O)CCC(O)CC(O)CC(O)CC(=O)OC(C)C(C)C1O)CC(O)C2C(=O)O (centres undefined)
CC50 (HEK293): > 10 µM
MIC (Candida albicans): 5 µM (≈ 4.55 µg/mL)
MIC (Klebsiella pneumoniae): > 10 µM
MIC (Pseudomonas aeruginosa): > 10 µM
MIC (Acinetobacter baumannii): > 10 µM
MIC (Staphylococcus aureus): > 10 µM
MIC (Cryptococcus neoformans): 5 µM (≈ 4.55 µg/mL)
MIC (Escherichia coli): > 10 µM

CC(=O)C(=O)NC1/C=C(C)\C=C/C(O)C/C=C(C)\C=C/C(O)CC2OC(=O)C1(C)C(=O)C2C (centres undefined)
CC50 (HEK293): > 10 µM
MIC (Candida albicans): > 10 µM
MIC (Klebsiella pneumoniae): > 10 µM
MIC (Pseudomonas aeruginosa): > 10 µM
MIC (Acinetobacter baumannii): > 10 µM
MIC (Staphylococcus aureus): 10 µM (≈ 4.6 µg/mL)
MIC (Cryptococcus neoformans): > 10 µM
MIC (Escherichia coli): > 10 µM

CO[C@H](/C(C)=C/C=C/C(C)=C/c1coc(C)n1)[C@H](C)[C@H]1C[C@@H](O)[C@@]2(C)O[C@H]2/C=C/[C@@H](C)[C@@H]2C[C@@H](CC(=O)O2)C[C@H]2O[C@@H]2C(=O)O1
CC50 (HEK293): > 10 µM
MIC (Candida albicans): > 10 µM
MIC (Klebsiella pneumoniae): > 10 µM
MIC (Pseudomonas aeruginosa): > 10 µM
MIC (Acinetobacter baumannii): > 10 µM
MIC (Staphylococcus aureus): > 10 µM
MIC (Cryptococcus neoformans): 1.25 µM (≈ 0.782 µg/mL)
MIC (Escherichia coli): > 10 µM

COc1cc2oc3cc(=O)cc4oc(-c5ccccc5)cc(c2c2c1CCC(c1ccccc1)O2)c43 (centres undefined)
CC50 (HEK293): > 10 µM
MIC (Candida albicans): > 10 µM
MIC (Klebsiella pneumoniae): > 10 µM
MIC (Pseudomonas aeruginosa): > 10 µM
MIC (Acinetobacter baumannii): > 10 µM
MIC (Staphylococcus aureus): > 10 µM
MIC (Cryptococcus neoformans): > 10 µM
MIC (Escherichia coli): > 10 µM

COC1CC(CC2CCC(C)C(C(C)C(=O)O)O2)OC2(OC(C)(C3CCC(C)(C4OC(C5OC(O)(CO)C(C)CC5C)CC4C)O3)CC2C)C1C (centres undefined)
CC50 (HEK293): > 10 µM
MIC (Candida albicans): 10 µM (≈ 7.25 µg/mL)
MIC (Klebsiella pneumoniae): > 10 µM
MIC (Pseudomonas aeruginosa): > 10 µM
MIC (Acinetobacter baumannii): > 10 µM
MIC (Staphylococcus aureus): 0.156 µM (≈ 0.113 µg/mL)
MIC (Cryptococcus neoformans): > 10 µM
MIC (Escherichia coli): > 10 µM

N#C[C@H](OC1OC(COC2OC(CO)C(O)C(O)C2O)C(O)C(O)C1O)c1ccccc1 (some centres undefined)
CC50 (HEK293): > 10 µM
MIC (Candida albicans): > 10 µM
MIC (Klebsiella pneumoniae): > 10 µM
MIC (Pseudomonas aeruginosa): > 10 µM
MIC (Acinetobacter baumannii): > 10 µM
MIC (Staphylococcus aureus): > 10 µM
MIC (Cryptococcus neoformans): > 10 µM
MIC (Escherichia coli): > 10 µM

CSC1SCC2C(=O)N(C)C(C(C)C)C(=O)OCC(NC(=O)c3cnc4ccccc4n3)C(=O)NC(C)C(=O)N(C)C1C(=O)N(C)C(C(C)C)C(=O)OCC(NC(=O)c1cnc3ccccc3n1)C(=O)NC(C)C(=O)N2C (centres undefined)
CC50 (HEK293): > 10 µM
MIC (Candida albicans): > 10 µM
MIC (Klebsiella pneumoniae): > 10 µM
MIC (Pseudomonas aeruginosa): 1.25 µM (≈ 1.38 µg/mL)
MIC (Acinetobacter baumannii): > 10 µM
MIC (Staphylococcus aureus): ≤ 0.0781 µM
MIC (Cryptococcus neoformans): 2.5 µM (≈ 2.75 µg/mL)
MIC (Escherichia coli): 2.5 µM (≈ 2.75 µg/mL)

COC1/C=C/O[C@@]2(C)Oc3c(C)c(O)c4c(O)c(cc(O)c4c3C2=O)NC(=O)/C(C)=C\C=C\[C@H](C)C(O)[C@@H](C)[C@@H](O)[C@@H](C)[C@H](OC(C)=O)[C@@H]1C (some centres undefined)
CC50 (HEK293): > 10 µM
MIC (Candida albicans): > 10 µM
MIC (Klebsiella pneumoniae): > 10 µM
MIC (Pseudomonas aeruginosa): > 10 µM
MIC (Acinetobacter baumannii): > 10 µM
MIC (Staphylococcus aureus): ≤ 0.0781 µM
MIC (Cryptococcus neoformans): > 10 µM
MIC (Escherichia coli): > 10 µM

CC1OC(=O)C(C(C)C)NC(=O)C(C(C)C)OC(=O)C(C(C)C)NC(=O)C(C)OC(=O)C(C(C)C)NC(=O)C(C(C)C)OC(=O)C(C(C)C)NC(=O)C(C)OC(=O)C(C(C)C)NC(=O)C(C(C)C)OC(=O)C(C(C)C)NC1=O (centres undefined)
CC50 (HEK293): > 10 µM
MIC (Candida albicans): 0.625 µM (≈ 0.695 µg/mL)
MIC (Klebsiella pneumoniae): > 10 µM
MIC (Pseudomonas aeruginosa): > 10 µM
MIC (Acinetobacter baumannii): > 10 µM
MIC (Staphylococcus aureus): > 10 µM
MIC (Cryptococcus neoformans): > 10 µM
MIC (Escherichia coli): > 10 µM

CCC(C(=O)C(C)C(O)C(C)CCc1ccc(C)c(O)c1C(=O)O)C1OC(CC)(C2CCC(O)(CC)C(C)O2)CC1C (centres undefined)
CC50 (HEK293): > 10 µM
MIC (Candida albicans): > 10 µM
MIC (Klebsiella pneumoniae): > 10 µM
MIC (Pseudomonas aeruginosa): > 10 µM
MIC (Acinetobacter baumannii): > 10 µM
MIC (Staphylococcus aureus): 0.312 µM (≈ 0.185 µg/mL)
MIC (Cryptococcus neoformans): > 10 µM
MIC (Escherichia coli): > 10 µM

C[C@H](N)C(=O)N[C@@H]1[C@H]2C(=C(O)C[C@@H](O)[C@@H]2O)C(=O)O[C@]1(C)C(Cl)Cl [BACTOBOLIN]
CC50 (HEK293): 0.396 µM
MIC (Candida albicans): > 10 µM
MIC (Klebsiella pneumoniae): > 10 µM
MIC (Pseudomonas aeruginosa): > 10 µM
MIC (Acinetobacter baumannii): > 10 µM
MIC (Staphylococcus aureus): 1.25 µM (≈ 0.479 µg/mL)
MIC (Cryptococcus neoformans): > 10 µM
MIC (Escherichia coli): 5 µM (≈ 1.92 µg/mL)

CN(C)[C@@H]1C(O)=C(C(N)=O)C(=O)[C@@]2(O)C(O)=C3C(=O)c4c(O)ccc(Cl)c4[C@@](C)(O)[C@H]3C[C@@H]12 [CHLORTETRACYCLINE HYDROCHLORIDE]
CC50 (HEK293): > 10 µM
MIC (Candida albicans): > 10 µM
MIC (Klebsiella pneumoniae): > 10 µM
MIC (Pseudomonas aeruginosa): 2.5 µM
MIC (Acinetobacter baumannii): > 10 µM
MIC (Staphylococcus aureus): 1.25 µM
MIC (Cryptococcus neoformans): > 10 µM
MIC (Escherichia coli): 5 µM

Cc1c2ccncc2c(C)c2c1[nH]c1ccccc12 [ELLIPTECINE]
CC50 (HEK293): 1.13 µM
MIC (Candida albicans): > 10 µM
MIC (Klebsiella pneumoniae): > 10 µM
MIC (Pseudomonas aeruginosa): > 10 µM
MIC (Acinetobacter baumannii): > 10 µM
MIC (Staphylococcus aureus): 10 µM (≈ 2.46 µg/mL)
MIC (Cryptococcus neoformans): 10 µM (≈ 2.46 µg/mL)
MIC (Escherichia coli): > 10 µM
